Results from patent publication US8586611B2 (priority 2005, dated 2013).

Legend:
Assay type in all cases: in vivo
[1] = test system: Pseudoperonospora cubensis; experiment: Test A: cucumber downy mildew, spray the day before inoculation (disease rating, 100 = 100% disease control); details: spray the day before inoculation, compounds without asterisk (not 40 or 10 ppm)
Excerpt: The test compounds were first dissolved in acetone in an amount equal to 3% of the final volume and then suspended at the desired concentration (in ppm) in acetone and purified water (50/50 mix by volume) containing 250 ppm of the surfactant Trem® 014 (polyhydric alcohol esters). The resulting test suspensions were then used in tests A-E. Spraying a 200 ppm test suspension to the point of run-off on the test plants was the equivalent of a rate of 500 g/ha.
(§1) The test suspension was sprayed to the point of run-off on cucumber seedlings. The following day the seedlings were inoculated with a spore suspension of Pseudoperonospora cubensis (the causal agent of cucumber downy mildew) and incubated in a saturated atmosphere at 20° C. for 24 h, and then moved to a growth chamber at 20° C. for 6 days, after which disease ratings were made.
(§2) Results for Tests A-F are given in Table A. In the table, a rating of 100 indicates 100% disease control and a rating of 0 indicates no disease control (relative to the controls). A dash (-) indicates no test results.

Plasmopara viticola = experiment: Test B: grape downy mildew, spray 24 h after inoculation (disease rating, 100 = 100% disease control); details: spray 24 h after inoculation, compounds without asterisk (not 40 or 10 ppm)
Procedure, shortened: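 This is a curative spray test, applied 24 h after inoculation. Compounds in 50/50 acetone–water with 250 ppm Trem 014 surfactant were sprayed to run-off on P. viticola-infected seedlings, with 200 ppm equating to 500 g/ha. Plants were kept 5 days in a 20 °C growth chamber, then 24 h humid, and scored 0–100 for disease control relative to controls.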

Phytophthora infestans [2] = experiment: whole plant or invertebrate; details: tomato late blight; spray the day before inoculation; compounds without asterisk (not 40 or 10 ppm)
[3] = test system: Erysiphe graminis f. sp. tritici; experiment: Test E: wheat powdery mildew, spray the day before inoculation (disease rating, 100 = 100% disease control); details: spray the day before inoculation, compounds without asterisk (not 40 or 10 ppm)
Procedure, shortened: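 Protective test: spores of E. graminis f. sp. tritici dusted on wheat seedlings one day after run-off spraying of test suspension (acetone/water with 250 ppm surfactant; 200 ppm = 500 g/ha). Ratings after 7 days in growth chamber at 20° C, 100 = full control, 0 = none, relative to controls.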

Phytophthora infestans [4] = experiment: whole plant or invertebrate; details: tomato late blight; spray 17 h after inoculation; compounds without asterisk (not 40 or 10 ppm)
[5] = test system: Pseudoperonospora cubensis; experiment: Test F: cucumber downy mildew, DMSO/acetone/water test suspension, spray the day before inoculation (disease rating, 100 = 100% disease control); details: DMSO/acetone/water suspension, spray the day before inoculation, compounds without asterisk
Excerpt: The test compounds were first dissolved in dimethyl sulfoxide (DMSO) in an amount equal to 4% of the final volume and then suspended at the desired concentration (in ppm) in acetone and purified water (30/70 mix by volume). The resulting test suspensions were then used in test F. Spraying a 250 ppm test suspension on the test plants was the equivalent of a rate of 250 g/ha.
as §1, with “sprayed” for “sprayed to the point of run-off”
as §2

Compound	Test A disease rating (100 = 100% disease control, 0 = no disease control) [1]	Test B disease rating (100 = 100% disease control, 0 = no disease control) (Plasmopara viticola)	Test C disease rating (100 = 100% disease control, 0 = no disease control) (Phytophthora infestans [2])	Test E disease rating (100 = 100% disease control, 0 = no disease control) [3]	Test D disease rating (100 = 100% disease control, 0 = no disease control) (Phytophthora infestans [4])	Test F disease rating (100 = 100% disease control, 0 = no disease control) [5]
2-[1-[(2,5-dichlorophenyl)acetyl]-4-piperidinyl]-N-methyl-N-[(1R)-1-phenylpropyl]-4-thiazolecarboxamide [Compound 110]	0%	53%	0%	21%	–	–
2-[1-[(2,5-dimethylphenyl)acetyl]-4-piperidinyl]-N-methyl-N-[(1R)-1,2,3,4-tetrahydro-1-naphthalenyl]-4-oxazolecarboxamide [Compound 153]	82%	28%	0%	0%	–	–
2-[1-[(2,5-dimethylphenyl)acetyl]-4-piperidinyl]-N-methyl-N-[(1R)-1-phenylpropyl]-4-thiazolecarboxamide [Compound 58]	0%	20%	56%	0%	–	–
2-[1-[(3,5-dichloro-1H-pyrazol-1-yl)acetyl]-4-piperidinyl]-N-methyl-N-[(1R)-1,2,3,4-tetrahydro-1-naphthalenyl]-4-thiazolecarboxamide [Compound 238]	0%	6%	0%	0%	–	–
2-[1-[[3,5-bis(trifluoromethyl)-1H-pyrazol-1-yl]acetyl]-4-piperidinyl]-N-methyl-N-[(1R)-1,2,3,4-tetrahydro-1-naphthalenyl]-4-thiazolecarboxamide [Compound 210]	0%	6%	0%	0%	–	–
2-[1-[[5-chloro-3-(trifluoromethyl)-1H-pyrazol-1-yl]acetyl]-4-piperidinyl]-N-methyl-N-[(1R)-1,2,3,4-tetrahydro-1-naphthalenyl]-4-thiazolecarboxamide [Compound 249]	0%	0%	0%	0%	–	–
2-[4-[(2,5-dimethylphenyl)acetyl]-1-piperazinyl]-N-methyl-N-[(1R)-1-phenylethyl]-5-thiazolecarboxamide [Compound 74]	0%	14%	0%	21%	–	–
C[C@H](c1ccccc1)N(C)C(=O)c1csc(C2CCN(C(=O)Cc3ccc(Cl)cc3Cl)CC2)n1 [compound 6]	0%	28%	0%	41%	–	–
Cc1ccc(C)c(CC(=O)N2CCC(c3nc(C(=O)N(C)C4CCCc5c4ccc4ccccc54)cs3)CC2)c1 (stereo not shown) [compound 173]	–	0%	0%	0%	0%	95%
